# Experimental data from patent US11241442B2, “Methods of use for TRP channel antagonist-based combination cancer therapies” (President and Fellows of Harvard College, priority 2017, dated 2022).
# Columns and labels:
# Format in all cases: cell-based
# [1] = system: MCF-10A acini; assay: [H2O2]i by Hyper-2 in MCF-10A 3D acini
# Protocol: For the measurement of [H2O2]i levels in MCF-10A acini and HCC1569 spheroids, cells were transduced with a lentiviral vector encoding Hyper-2 or Hyper-2 (C199S). The Hyper-2 fluorescence was measured at 37° C. in HEPES-buffered saline (HBS) containing the following (in mM): 150 NaCl, 6 KCl, 1.2 MgSO4, 2 CaCl2, 11.5 glucose, and 25 HEPES (pH adjusted to 7.4 with NaOH). Fluorescence images of the cells were acquired through the Eclipse Ti-E microscope (Nikon) with ORCA-R2 cooled CCD camera (Hamamatsu Photonics) and analyzed with Metafluor image acquisition software (Molecular Devices). The 488:405-nm ratio images were obtained on a pixel-by-pixel basis. 3D images are shown as one section from midstructure. For the measurement of [H2O2]i levels in MCF-10A cells cultured in suspension, cell clumps were dissociated with trypsin and stained with 10 μM peroxy green-1 for 30 min at 37° C. Cells were then subjected to flow cytometric analysis (FACSCalibur; BD Biosciences). ROS levels determined by flow cytometry are reported as mean fluorescence intensity expressed in arbitrary units. Hyper-2 ratio images are representative from two independent experiments and averaged Hyper-2 ratio represents mean±SD from the sum of two independent experiments.
# [2] = system: TRPA1; assay: [Ca2+]i by fura-2 in TRPA1-expressing MCF-10A 3D acini; conditions: inner ECM-deprived region of MCF-10A acini
# TRPA1, sequence (O75762 682-1119 limits assumed): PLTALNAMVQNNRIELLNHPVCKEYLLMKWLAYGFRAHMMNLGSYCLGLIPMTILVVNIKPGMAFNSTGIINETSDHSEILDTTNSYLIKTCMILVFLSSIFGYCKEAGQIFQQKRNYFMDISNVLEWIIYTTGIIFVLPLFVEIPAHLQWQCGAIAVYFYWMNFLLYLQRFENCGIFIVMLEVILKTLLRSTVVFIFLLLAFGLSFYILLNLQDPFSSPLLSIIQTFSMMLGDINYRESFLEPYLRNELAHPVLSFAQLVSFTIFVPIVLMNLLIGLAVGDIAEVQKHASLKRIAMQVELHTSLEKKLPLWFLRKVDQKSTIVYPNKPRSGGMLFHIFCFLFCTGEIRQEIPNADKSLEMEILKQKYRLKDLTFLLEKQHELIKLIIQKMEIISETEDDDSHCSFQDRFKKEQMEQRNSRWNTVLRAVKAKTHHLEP
# Protocol: (§1) For the measurement of [Ca^2+]i levels in cells cultured in 2D or 3D (in Matrigel), cells were stained with 3.5 μM fura-2-AM (Life Technology) in the presence of 2.5 mM probenecid (Sigma) and 0.02% Pluronic F-127 (Sigma) for 45 min at 37° C. The fura-2 fluorescence was measured in HBS solution containing 1.25 mM probenecid at 37° C. Fluorescence images of the cells were acquired through the Eclipse Ti-E microscope with ORCA-R2 cooled CCD camera and analyzed with Metafluor. The 340:380-nm ratio images were obtained on a pixel-by-pixel basis and were converted to Ca^2+ concentrations by in vivo calibration using 5 μM ionomycin as described previously (Nishida et al., Biochem. Biophys. Res. Commun., 262:350-354, 1999). 3D images are shown as one section from midstructure. For the measurement of [Ca^2+]i levels in cells cultured in suspension, cell clumps were dissociated with trypsin and [Ca^2+]i levels were determined by using Fluo-4 NW Calcium Assay Kit (Molecular Probes). Cells were stained with Fluo-4 according to the manufacturer's instructions and subjected to flow cytometric analysis (FACSCalibur) using HBS as sheath fluid. [Ca^2+]i levels determined by flow cytometry are reported as mean fluorescence intensity expressed in arbitrary units. Time courses of [Ca^2+]i rises in 2D culture are representative of three independent experiments and averaged Δ[Ca^2+]i represents mean±SEM from the sum of three independent experiments. Fura-2 ratio images in 3D culture are representative of two independent experiments and averaged [Ca^2+]i in 3D culture represents mean±SEM from the sum of two independent experiments.
# [3] = system: EL-12-58 cells; assay: Live cell number and cell death under H2O2 in EL-12-58 cells; conditions: 10 μM AP-18; H2O2 for 72 h
# Protocol: (§2) For the measurements of live cell number and cell death under treatment with H2O2, diamide, or chemotherapies, cells were cultured on 96-well plates in the presence or absence of these drugs for indicated times and stained with 5 μM bisBenzimide H 33342 trihydrochloride (Hoechst; Sigma) and 5 μM propidium iodide (PI; Sigma) for 1 h at 37° C. Hoechst- and/or PI-positive cells were counted using a laser scanning cytometer, Acumen Cellista (TTPLabTech). Apoptotic cells induced by H2O2 treatment were measured by staining with Annexin V-Alexa Fluor® 488 conjugate (Life Technologies) and PI in Ca^2+-containing solution (10 mM HEPES pH 7.4, 140 mM NaCl; 2.5 mM CaCl2), followed by flow cytometric measurement of fluorescence using a FACSCalibur. Flow cytometry plots are representative of three independent experiments. […] Viable cells were counted using the Countless Automated Cell Counters (Thermo Fisher Scientific). […] Hoechst- and/or PI-positive areas were measured using Acumen Cellista. Apoptotic cells induced by detachment were measured by staining with 5 μM Hoechst and 5 μM of CellEvent™ Caspase-3/7 Green Detection Reagent (Thermo Fisher Scientific) for 1 h at 37° C. without enzymatic dissociation of cell clumps. Hoechst- and/or CellEvent™ Caspase-3/7 Green Detection Reagent-positive areas were measured using Acumen Cellista. […]
# [4] = biological target: T1, TRPA1 (Homo sapiens, UniProt O75762); assay: AITC-evoked [Ca2+]i rises in TRPA1-enriched MPNST cells; conditions: 10 μM AP-18, 30 μM AITC
# T1 construct: endogenous in cells; host or cells: HCC1569 breast cancer cells (2D culture or 3D spheroids; shGFP or shTRPA1 transduced)
# T1 sequence (O75762 whole entry): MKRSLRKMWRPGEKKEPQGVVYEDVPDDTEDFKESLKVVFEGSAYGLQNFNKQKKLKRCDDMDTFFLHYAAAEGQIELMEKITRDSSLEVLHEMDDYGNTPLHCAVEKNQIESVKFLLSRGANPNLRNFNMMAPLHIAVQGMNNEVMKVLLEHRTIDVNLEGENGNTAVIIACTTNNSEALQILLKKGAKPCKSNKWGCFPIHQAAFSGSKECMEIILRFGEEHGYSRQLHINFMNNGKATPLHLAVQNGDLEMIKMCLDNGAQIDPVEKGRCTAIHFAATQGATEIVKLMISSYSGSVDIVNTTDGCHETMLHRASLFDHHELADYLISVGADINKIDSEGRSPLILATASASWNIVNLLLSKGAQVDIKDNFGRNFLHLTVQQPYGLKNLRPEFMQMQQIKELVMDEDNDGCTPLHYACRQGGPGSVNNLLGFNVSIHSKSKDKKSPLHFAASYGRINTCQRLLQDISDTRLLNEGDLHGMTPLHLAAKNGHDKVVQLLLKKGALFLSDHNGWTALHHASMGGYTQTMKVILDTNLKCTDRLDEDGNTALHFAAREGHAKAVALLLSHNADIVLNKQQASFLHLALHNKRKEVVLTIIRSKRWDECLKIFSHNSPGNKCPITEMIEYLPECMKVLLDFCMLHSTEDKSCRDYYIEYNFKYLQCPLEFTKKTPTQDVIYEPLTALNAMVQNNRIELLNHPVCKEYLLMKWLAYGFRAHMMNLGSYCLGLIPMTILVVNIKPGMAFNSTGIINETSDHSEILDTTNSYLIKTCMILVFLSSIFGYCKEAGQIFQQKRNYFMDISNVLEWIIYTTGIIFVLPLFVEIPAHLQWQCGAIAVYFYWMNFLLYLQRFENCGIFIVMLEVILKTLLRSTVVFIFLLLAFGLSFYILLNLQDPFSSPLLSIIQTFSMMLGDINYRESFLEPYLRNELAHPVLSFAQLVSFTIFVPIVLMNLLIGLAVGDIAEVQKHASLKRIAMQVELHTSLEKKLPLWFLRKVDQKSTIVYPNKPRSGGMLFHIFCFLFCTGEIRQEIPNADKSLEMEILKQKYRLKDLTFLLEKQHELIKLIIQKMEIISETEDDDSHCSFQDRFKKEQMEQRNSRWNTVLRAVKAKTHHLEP
# Protocol: as §1, with “Time courses of [Ca^2+]i rises in 2D culture are representative of three independent experiments and averaged Δ[Ca^2+]i represents mean±SEM from the sum of three independent experiments. Fura-2 ratio images in 3D culture are representative of two independent experiments and averaged [Ca^2+]i in 3D culture represents mean±SEM from the sum of two independent experiments.” left out
# [5] = system: NSCLC cells; assay: H2O2- and carboplatin-induced cytotoxicity in NSCLC cells; conditions: TRPA1 expression-dependent
# Protocol: as §2
substance,measurement,setting,value
AP-18,increase in [H2O2]i (Hyper-2) in inner ECM-deprived cells,[1],unaffected
same,TRPA1- or E681K-induced [Ca2+]i rises,[2],abolished
same,sensitization to H2O2 cytotoxicity,[3],sensitized
same,inhibition of AITC-induced [Ca2+]i rises,[4],abolished
same,sensitization to carboplatin-induced cytotoxicity,"[5]; 10 μM AP-18, carboplatin 72 h",sensitized
same,sensitization to H2O2-induced cytotoxicity,[5],sensitized
